Assay results: publication PMC5321434, “Dihydrobenz[e][1,4]oxazepin-2(3H)-ones, a new anthelmintic chemotype immobilising whipworm and reducing infectivity in vivo” (PLoS Neglected Tropical Diseases, 2017)

Tests used:
[1] = tested on: CMT-93 murine rectal epithelial cells; test: WST-8 cytotoxicity assay; assay type: cell-based, mouse; details: Mus musculus, CMT93; CMT-93 cells, 72 hours, maximum tested concentration 100μM, n = 8, 95% confidence interval in parentheses
Procedure: CMT-93 murine rectal epithelial cells were maintained in Dulbecco's Modified Eagle's Medium (DMEM) with 10% fetal calf serum (FCS) and 1% penicillin-streptomycin solution (10,000U/ml). Cells were plated in 96-well tissue culture plates at a density of 2x10^2 cells per well in a volume of 100μl, and cultured for 96 hours (37°C, 5% CO2) until reaching 30% confluence. The growth medium was removed and replaced with treatment media (DMEM, 1% FCS, 1% penicillin-streptomycin solution, 100μl assay volume) supplemented with vehicle alone (DMSO), test compounds or chlorpromazine, a positive control for cytotoxicity (final concentrations from 0 to 100μM). Maximum vehicle concentration for all compounds was 0.5% DMSO. Cells were cultured with the test compounds for 72 hours before cytotoxicity measurement. The WST-8 assay was performed using the Cell Counting Kit– 8 (Sigma Aldrich # 96992). 10μl of the CCK-8 solution was added to each well, plates were incubated for a further 2 hours, before absorbance was measured at 450nm using a microplate reader. This assay measures the ability of metabolically active cells to reduce a water-soluble formazan dye. Results were analysed using GraphPad Prism and fitted using a log-logistic model.

[2] = tested on: CMT-93 murine rectal epithelial cells; test: Neutral red cytotoxicity assay; assay type: cell-based, mouse; details: Mus musculus, CMT93; CMT-93 cells, 72 hours, maximum tested concentration 100μM, n = 8, 95% confidence interval in parentheses
Procedure: CMT-93 murine rectal epithelial cells were maintained in Dulbecco's Modified Eagle's Medium (DMEM) with 10% fetal calf serum (FCS) and 1% penicillin-streptomycin solution (10,000U/ml). Cells were plated in 96-well tissue culture plates at a density of 2x10^2 cells per well in a volume of 100μl, and cultured for 96 hours (37°C, 5% CO2) until reaching 30% confluence. The growth medium was removed and replaced with treatment media (DMEM, 1% FCS, 1% penicillin-streptomycin solution, 100μl assay volume) supplemented with vehicle alone (DMSO), test compounds or chlorpromazine, a positive control for cytotoxicity (final concentrations from 0 to 100μM). Maximum vehicle concentration for all compounds was 0.5% DMSO. Cells were cultured with the test compounds for 72 hours before cytotoxicity measurement. Following the WST-8 assay, the medium was removed, cells were washed with 100μl PBS and then 100μl of neutral red medium (DMEM, 1% FBS and 33μg/ml neutral red dye (Sigma Aldrich #N2889) were added to each well, followed by incubation for a further 2 hours. The neutral red medium was removed, cells washed with 100μl of PBS and 100μl of destain solution (50% ethanol, 49% distilled water and 1% glacial acetic acid) were added. Each assay plate was shaken rapidly for 10 minutes before absorbance was measured at 540nm using a microplate reader. This assay measures the ability of living cells to actively take up the neutral red dye. Results were analysed using GraphPad Prism and fitted using a log-logistic model.

[3] = tested on: adult T. muris; test: Ex vivo adult T. muris automated motility assay (primary/secondary screen at 100 μM and dose-response); set-up: species or system Trichuris muris; details: for PRIMARY_SCREEN_MINUS_LOG_FOLD_CHANGE_MOVEMENT: primary screen; for PRIMARY_SCREEN_MINUS_LOG_FOLD_CHANGE_MOVEMENT / SECONDARY_SCREEN_MINUS_LOG_FOLD_CHANGE_MOVEMENT: adult T. muris motility; for SECONDARY_SCREEN_MINUS_LOG_FOLD_CHANGE_MOVEMENT: secondary screen; for EC50: Trichuris muris, values of Fig 5 shown for comparison, read-out: EC50 in adult Trichuris paralysis assay
In short: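 Adult worms recovered from SCID mice at day 35 post-infection (200 eggs orally), one per well, in RPMI-1640 with penicillin/streptomycin and 1% DMSO. Compound at 100 μM final in primary screen, 24 h at 37 °C, 5% CO2; motility from pixel-variance imaging, dose-response by four-parameter log-logistic fit.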

[4] = combined primary and secondary screen minus log fold change in movement, adult T. muris, 100 μM
[5] = adult T. muris motility screen at 100 μM, combines primary and secondary screen minus log fold change in movement (mean where both are given)

| Structure (SMILES) | COMBINED_SCREEN_ACTIVITY [3, 4] | PRIMARY_SCREEN_MINUS_LOG_FOLD_CHANGE_MOVEMENT ([3]; 100 μM) | other results |
| --- | --- | --- | --- |
| CN(C)CCCN1c2ccccc2Sc2ccc(Cl)cc21 [Chlorpromazine, reference compound] | – | – | EC50 [1]: 9 µM; EC50 [2]: 10 µM |
| COc1ccc(F)cc1-c1ccc2c(c1)N(CCN1CCOCC1)C(=O)COC2 [Compound 162] | -1.305 | -1.305 | – |
| COc1ccc(F)cc1-c1ccc2c(c1)COCC(=O)N2CCN1CCOCC1 [Compound 163] | -0.1485 | -0.1485 | – |
| CC(=O)Nc1cccc(-c2ccc3c(c2)N(CCc2ccccc2)C(=O)COC3)c1 [Compound 164] | 1.82 | 1.82 | – |
| Cn1cc(-c2ccc3c(c2)COCC(=O)N3Cc2ccc(C(F)(F)F)cc2)cn1 [Compound 165] | 10.5493 | 10.5493 | – |
| Cn1cc(-c2ccc3c(c2)N(Cc2ccc(C(F)(F)F)cc2)C(=O)COC3)cn1 [Compound 166] | 11.5841 | 10.5493 | SECONDARY_SCREEN_MINUS_LOG_FOLD_CHANGE_MOVEMENT ([3]; 100 μM): 12.6188 |
| O=C1COCc2ccc(-c3ccc4ccccc4c3)cc2N1CCN1CCOCC1 [Compound 167] | 3.214 | 3.214 | – |
| O=C1COCc2cc(-c3cccc(CO)c3)ccc2N1Cc1ccc2c(c1)OCO2 [Compound 168] | 1.914 | 1.914 | – |
| COc1cccc(CN2C(=O)COCc3ccc(-c4ccc5c(c4)OCO5)cc32)c1 [Compound 169] | 0.1266 | 0.1266 | – |
| COCc1cccc(-c2ccc3c(c2)COCC(=O)N3Cc2cccc(OC)c2)c1 [Compound 170] | -0.3892 | -0.3892 | – |
| COc1ccc(-c2ccc3c(c2)N(CCc2ccccc2)C(=O)COC3)cc1OC [Compound 171] | 7.742 | 7.742 | – |
| COCc1cccc(-c2ccc3c(c2)N(Cc2cccc(OC)c2)C(=O)COC3)c1 [Compound 172] | -0.3707 | -0.3707 | – |
| O=C1COCc2ccc(-c3cnc4ccccc4c3)cc2N1CCN1CCOCC1 [Compound 173] | 0.2312 | 0.2312 | – |
| O=C1COCc2cc(-c3cc(F)cc(Cl)c3)ccc2N1CCN1CCOCC1 [Compound 174] | -1.356 | -1.356 | – |
| O=C1COCc2ccc(-c3ccc(F)c(Cl)c3)cc2N1CCN1CCOCC1 [Compound 175] | 0.9531 | 0.9531 | – |
| O=C1COCc2ccc(-c3cc(F)cc(Cl)c3)cc2N1CCN1CCOCC1 [Compound 176] | -1.404 | -1.404 | – |
| COc1cccc(CN2C(=O)COCc3cc(-c4ccc(F)cc4OC)ccc32)c1 [Compound 177] | -1.282 | -1.282 | – |

| Structure (SMILES) | COMBINED_SCREEN_ACTIVITY [3, 4] | PRIMARY_SCREEN_MINUS_LOG_FOLD_CHANGE_MOVEMENT ([3]; 100 μM) | other results |
| --- | --- | --- | --- |
| O=C(O)c1cccc(-c2ccc3c(c2)N(Cc2cc(F)cc(F)c2)C(=O)COC3)c1 [Compound 178] | -2.449 | -2.449 | – |
| COCc1cccc(-c2ccc3c(c2)COCC(=O)N3Cc2cc(F)cc(F)c2)c1 [Compound 179] | 0.9799 | 0.9799 | – |
| CC(C)Oc1cccc(-c2ccc3c(c2)N(CCN2CCOCC2)C(=O)COC3)c1 [Compound 180] | -1.713 | -1.713 | – |
| COc1cc(F)ccc1-c1ccc2c(c1)N(Cc1cc(F)cc(F)c1)C(=O)COC2 [Compound 181] | – | -0.2325 | COMBINED_SCREEN_ACTIVITY [3, 5]: -0.2325 |
| COc1cc(F)ccc1-c1ccc2c(c1)COCC(=O)N2Cc1cc(F)cc(F)c1 [Compound 182] | -0.8244 | -0.8244 | – |
| COC(=O)c1cccc(-c2ccc3c(c2)N(Cc2cccc(OC)c2)C(=O)COC3)c1 [Compound 183] | – | -1.271 | COMBINED_SCREEN_ACTIVITY [3, 5]: -1.271 |
| O=C1COCc2ccc(-c3cccc(C(F)(F)F)c3)cc2N1CCN1CCOCC1 [Compound 184] | -1.964 | -1.964 | – |
| CC(=O)Nc1cccc(-c2ccc3c(c2)N(Cc2cc(F)cc(F)c2)C(=O)COC3)c1 [Compound 185] | – | 10.5493 | COMBINED_SCREEN_ACTIVITY [3, 5]: 6.728; SECONDARY_SCREEN_MINUS_LOG_FOLD_CHANGE_MOVEMENT ([3]; 100 μM): 2.906 |
| Cc1ccc(-c2ccc3c(c2)COCC(=O)N3Cc2ccc(C(=O)N(C)C)cc2)cc1C [Compound 186] | – | 10.5493 | COMBINED_SCREEN_ACTIVITY [3, 5]: 10.5493 |
| CCN(CC)C(=O)c1cccc(-c2ccc3c(c2)N(Cc2ccccc2)C(=O)COC3)c1 [Compound 187] | – | 7.09 | COMBINED_SCREEN_ACTIVITY [3, 5]: 9.854; SECONDARY_SCREEN_MINUS_LOG_FOLD_CHANGE_MOVEMENT ([3]; 100 μM): 12.6188 |
| COc1ccccc1-c1ccc2c(c1)COCC(=O)N2Cc1ccc(C(=O)N(C)C)cc1 [Compound 188] | – | 1.744 | COMBINED_SCREEN_ACTIVITY [3, 5]: 1.744 |
| CC(C)c1cccc(-c2ccc3c(c2)COCC(=O)N3Cc2ccc(C(=O)N(C)C)cc2)c1 [Compound 190] | – | 10.3993 | COMBINED_SCREEN_ACTIVITY [3, 5]: 11.0091; SECONDARY_SCREEN_MINUS_LOG_FOLD_CHANGE_MOVEMENT ([3]; 100 μM): 11.6188 |
| CCN(CC)C(=O)c1cccc(-c2ccc3c(c2)N(Cc2ccccc2C)C(=O)COC3)c1 [Compound 191] | – | 10.7743 | COMBINED_SCREEN_ACTIVITY [3, 5]: 10.9041; SECONDARY_SCREEN_MINUS_LOG_FOLD_CHANGE_MOVEMENT ([3]; 100 μM): 11.0339 |
| CN(C)C(=O)c1ccc(CN2C(=O)COCc3cc(-c4ccc5c(c4)OCO5)ccc32)cc1 [Compound 192] | – | 10.5493 | COMBINED_SCREEN_ACTIVITY [3, 5]: 10.5493 |
| O=C1COCc2cc(-c3cccnc3)ccc2N1CC1CCCCC1 [OX02993, 1-(Cyclohexylmethyl)-7-(pyridin-3-yl)-1,5-dihydrobenzo[e][1,4]oxazepin-2(3H)-one] | – | – | EC50 [3]: 52 µM; EC50 [1]: > 100 µM; EC50 [2]: > 100 µM |
| O=C1COCc2cc(-c3cccnc3)ccc2N1Cc1ccc(C(F)(F)F)cc1 [OX03144, 7-(Pyridin-3-yl)-1-(4-(trifluoromethyl)benzyl)-1,5-dihydrobenzo[e][1,4]oxazepin-2(3H)-one] | – | – | EC50 [3]: 26 µM; EC50 [1]: > 100 µM; EC50 [2]: 60 µM |
| Cc1ccc(CN2C(=O)COCc3cc(Br)ccc32)cc1 [OX03146, 7-Bromo-1-(4-methylbenzyl)-1,5-dihydrobenzo[e][1,4]oxazepin-2(3H)-one] | – | – | EC50 [3]: 35 µM; EC50 [1]: 63 µM; EC50 [2]: 47 µM |
